How the values were obtained:
Escherichia coli = assay: Effect on the intestinal bacterial colonies: E. coli count in mouse feces; type: in vivo
Protocol: (§1) Each of the cephalosporin derivatives of the invention prepared in Examples 1 to 4 was orally administered to mice (one group consisting of five female ICR mice of 6-week-old) for two consecutive days at a dose of 500 mg/kg/day.
(§2) Before and one day after the administration, feces of each mouse was collected and diluted with an anaerobic diluent (phosphoric buffer solution) of 100 times by volume and the diluted feces was ground. 0.1 ml of the diluted and ground feces was smeared on each culture medium shown in Table 1 and cultured aerobically or anaerobically (according to the anaerobic glove box method) under each condition shown in Table 1 and the number of each bacterium shown in Table 1 was counted.
DHL agar aerobic, 37° C.,

Streptococcus spp. = assay: Effect on the intestinal bacterial colonies: Streptococcus spp. count in mouse feces; type: in vivo
Protocol: as §1, §2
TATAC agar aerobic, 37° C.,

Pseudomonas aeruginosa = assay: Effect on the intestinal bacterial colonies: Ps. aeruginosa count in mouse feces; type: in vivo
Protocol: as §1, §2
NAC agar aerobic, 37° C.,

Lactobacillus bifidus = assay: Effect on the intestinal bacterial colonies: L. bifidus count in mouse feces; type: in vivo
Protocol: as §1, §2
BS agar anaerobic, 37° C.,

[1] = tested on: Escherichia coli IFO 12734; assay: Antibacterial activity (MIC), agar plate, E. coli; type: cell-based; set-up: unit not given beside the values; conditions: Mueller-Hinton agar, 37° C., 18 to 24 hours; unit not given
Protocol: (§3) Antibacterial activity of each of the cephalosporin derivatives of the invention prepared in Examples 1 to 4 was examined against the following two bacteria according to the standard method of Japan Society of Chemitherapy: Escherichia coli IFO 12734 and Staphylococcus aureus IAM 1011.
(§4) Each bacterial strain was inoculated into the Mueller-Hinton's culture medium and cultured at 37° C. for 18 to 48 hours. The cultured medium was diluted so as to contain 1×10^6 cells of the bacteria per one ml, and the obtained medium was used as the bacterial specimen.
(§5) Agar plates were prepared by adding one part by weight of each solution of the cephalosporin derivative of the invention at a predetermined concentration to nine parts by weight of Mueller-Hinton's culture medium.
(§6) A loopful amount of the bacterial specimen prepared above was smeared to make a streak of about 2 cm on each agar plate prepared above and cultured at 37° C. for 18 to 24 hours.
(§7) The minimum concentration for completely inhibiting proliferation of the bacteria (referred to as MIC) was determined.

Bacteroides = assay: Effect on the intestinal bacterial colonies: Bacteroides count in mouse feces; type: in vivo
Protocol: as §1, §2
Bacteroides NBGT agar anaerobic, 37° C.,

[2] = tested on: Staphylococcus aureus IAM 1011; assay: Activation by rat liver homogenate (S-9 mix), proliferation-inhibiting circle, penicillin cup; type: cell-based; conditions: 37° C., 20 min, ratio of circle diameter to that of the starting compound; for Proliferation-inhibiting index, before adding S-9 mix (control): phosphoric buffer instead of S-9 mix; for Proliferation-inhibiting index, after adding S-9 mix: rat liver S-9 mix; for all read-outs here: ranges in brackets are in %
Protocol: As an activating enzyme of metabolism, a rat liver homogenate (S-9, manufactured by Oriental Yeast Company, Japan) was used in the following composition per 1 ml (hereinafter referred to as S-9 mix). |S-9 0.5 ml |KCl 3.3 μmol |MgCl2.6H2 O 8 μmol |Glucose 6-phosphate 5 μmol |NADH 4 μmol |NADPH 4 μmol |0.2 M phosphoric buffer solution | 0.5 ml |(pH of 7.4) 0.1 ml of the solution of each of the cephalosporin derivatives of the invention prepared in Examples 1 to 4 at a concentration of 100 μg/ml was mixed with 0.9 ml of S-9 mix or 0.9 ml of 0.1 M phosphoric buffer solution (as a control) and the obtained mixture was incubated at 37° C. for 20 min with shaking. Staphylococcus aureus IAM 1011 was inoculated into a Mueller-Hinton's culture medium and cultured at 37° C. for 18 hours. The culture medium was adjusted to a cell concentration of 1×10^8 per 1 ml and mixed with 50 times by volume of Mueller-Hinton's agar culture medium to obtain an agar plate. A penicillin cup of 8 mm in diameter was placed on the agar plate prepared above, and into the cup 0.1 ml of the mixture containing the cephalosporin derivative prepared above was introduced and allowed to stand at 4° C. for 2 hours, and then cultured at 37° C. for 18 hours to measure the diameter of a circle in which the proliferation of bacteria was inhibited (proliferation-inhibiting circle). In Table 4, the proliferation-inhibiting index is shown in the ratio (%) of the diameter of the proliferation-inhibiting circle obtained by using each of the cephalosporin derivatives of the invention to that obtained by using each of the starting compound in preparing each of the cephalosporin derivatives of the invention.

[3] = tested on: Staphylococcus aureus IAM 1011; assay: Antibacterial activity (MIC), agar plate, Staph. aureus; type: cell-based; set-up: unit not given beside the values; conditions: Mueller-Hinton agar, 37° C., 18 to 24 hours; unit not given
Protocol: as §3, §4, §5, §6, §7

[4] = tested on: Lactobacillus acidophilus; assay: Effect on the intestinal bacterial colonies: L. acidophilus count in mouse feces; type: in vivo
Protocol: as §1, §2
Lactobacillus acidophilus
LBS agar anaerobic, 37° C.,

[5] = female ICR mice, oral 500 mg/kg/day for two days, one day after administration, before administration 6.4

Structure (SMILES) | Logarithmic value of the number of bacterial cells per one g of feces: E. coli (Escherichia coli; [5]) | Logarithmic value of the number of bacterial cells per one g of feces: Strept. spp. (Streptococcus spp.; in vivo, po, 500 mg/kg/day) | Logarithmic value of the number of bacterial cells per one g of feces: Ps. aeruginosa (Pseudomonas aeruginosa; in vivo, po, 500 mg/kg/day) | Logarithmic value of the number of bacterial cells per one g of feces: L. bifidus (Lactobacillus bifidus; in vivo, po, 500 mg/kg/day) | MIC, E. coli [1] | Logarithmic value of the number of bacterial cells per one g of feces: Bacteroides (Bacteroides; in vivo, po, 500 mg/kg/day) | MIC, Staph. aureus [3] | Logarithmic value of the number of bacterial cells per one g of feces: L. acidophilus ([4]; in vivo, po, 500 mg/kg/day) | Proliferation-inhibiting index, before adding S-9 mix (control) [2] | Proliferation-inhibiting index, after adding S-9 mix [2] | change of the number of Escherichia coli compared to before administration (Escherichia coli; in vivo) | Logarithmic value of the number of bacterial cells per one g of feces: E. coli (Escherichia coli; in vivo, po, 500 mg/kg/day) | Logarithmic value of the number of bacterial cells per one g of feces: Strept. spp. (Streptococcus spp.; female ICR mice, oral 500 mg/kg/day for two days, one day after administration, before administration 6.8) | Logarithmic value of the number of bacterial cells per one g of feces: Ps. aeruginosa (Pseudomonas aeruginosa; female ICR mice, oral 500 mg/kg/day for two days, one day after administration, before administration <3.0) | Logarithmic value of the number of bacterial cells per one g of feces: L. bifidus (Lactobacillus bifidus; female ICR mice, oral 500 mg/kg/day for two days, one day after administration, before administration 8.4) | Logarithmic value of the number of bacterial cells per one g of feces: Bacteroides (Bacteroides; female ICR mice, oral 500 mg/kg/day for two days, one day after administration, before administration 8.3) | Logarithmic value of the number of bacterial cells per one g of feces: L. acidophilus ([4]; female ICR mice, oral 500 mg/kg/day for two days, one day after administration, before administration 9.0) | change of Lactobacillus acidophilus ([4]; mouse feces, result in words)
CCOC(=O)C(Cc1ccc(O)cc1)NC(=O)C1=C(COC(C)=O)CSC2C(NC(=O)Cc3cccs3)C(=O)N12 (stereo not drawn) [Example 3, N-[1-carboethoxy-2-(4-hydroxyphenyl)ethyl]-7-(thienyl-2-acetamido)cephalosporanic acid amide] | 6.5 Logarithmic value of the numbe | 6.3 Logarithmic value of the numbe | < 3.0 Logarithmic value of the numbe | 8.2 Logarithmic value of the numbe | ≥ 100 | 8.7 Logarithmic value of the numbe | ≥ 12.5 | 8.9 Logarithmic value of the numbe | - (0) | ± (0-1) |  |  |  |  |  |  |  | 
COC(=O)CCC(NC(=O)C1=C(COC(C)=O)CSC2C(NC(=O)Cc3cccs3)C(=O)N12)C(=O)OC (stereo not drawn) [Example 4, N-[1,3-bis(carbomethoxy)propyl]-7-(thienyl-2-acetamido)cephalosporanic acid amide] | 6.0 Logarithmic value of the numbe | 7.0 Logarithmic value of the numbe | < 3.9 Logarithmic value of the numbe | 8.9 Logarithmic value of the numbe | ≥ 100 | 8.3 Logarithmic value of the numbe | 12.5 | 9.4 Logarithmic value of the numbe | + (1-33) | ++ (33-66) |  |  |  |  |  |  |  | 
CC(=O)OCC1=C(C(=O)O)N2C(=O)[C@@H](NC(=O)Cc3cccs3)[C@H]2SC1 [Cephalotin, reference compound] |  |  |  |  |  |  |  |  |  |  | increased | 9.9 Logarithmic value of the numbe | 9.0 Logarithmic value of the numbe | < 3.0 Logarithmic value of the numbe | 9.2 Logarithmic value of the numbe | 7.2 Logarithmic value of the numbe | 4.1 Logarithmic value of the numbe | decreased

Second part, led by results:

Logarithmic value of the number of bacterial cells per one g of feces: E. coli (Escherichia coli; [5]) | Logarithmic value of the number of bacterial cells per one g of feces: Strept. spp. (Streptococcus spp.; in vivo, po, 500 mg/kg/day) | Logarithmic value of the number of bacterial cells per one g of feces: Ps. aeruginosa (Pseudomonas aeruginosa; in vivo, po, 500 mg/kg/day) | Logarithmic value of the number of bacterial cells per one g of feces: L. bifidus (Lactobacillus bifidus; in vivo, po, 500 mg/kg/day) | MIC, E. coli [1] | Logarithmic value of the number of bacterial cells per one g of feces: Bacteroides (Bacteroides; in vivo, po, 500 mg/kg/day) | MIC, Staph. aureus [3] | Logarithmic value of the number of bacterial cells per one g of feces: L. acidophilus ([4]; in vivo, po, 500 mg/kg/day) | Structure (SMILES) | Proliferation-inhibiting index, before adding S-9 mix (control) [2] | Proliferation-inhibiting index, after adding S-9 mix [2] | change of the number of Escherichia coli compared to before administration (Escherichia coli; in vivo) | Logarithmic value of the number of bacterial cells per one g of feces: E. coli (Escherichia coli; in vivo, po, 500 mg/kg/day) | Logarithmic value of the number of bacterial cells per one g of feces: Strept. spp. (Streptococcus spp.; female ICR mice, oral 500 mg/kg/day for two days, one day after administration, before administration 6.8) | Logarithmic value of the number of bacterial cells per one g of feces: Ps. aeruginosa (Pseudomonas aeruginosa; female ICR mice, oral 500 mg/kg/day for two days, one day after administration, before administration <3.0) | Logarithmic value of the number of bacterial cells per one g of feces: L. bifidus (Lactobacillus bifidus; female ICR mice, oral 500 mg/kg/day for two days, one day after administration, before administration 8.4) | Logarithmic value of the number of bacterial cells per one g of feces: Bacteroides (Bacteroides; female ICR mice, oral 500 mg/kg/day for two days, one day after administration, before administration 8.3) | Logarithmic value of the number of bacterial cells per one g of feces: L. acidophilus ([4]; female ICR mice, oral 500 mg/kg/day for two days, one day after administration, before administration 9.0) | change of Lactobacillus acidophilus ([4]; mouse feces, result in words)
6.4 Logarithmic value of the numbe | 6.6 Logarithmic value of the numbe | < 3.0 Logarithmic value of the numbe | 8.3 Logarithmic value of the numbe | ≥ 100 | 8.8 Logarithmic value of the numbe | ≥ 12.5 | 8.9 Logarithmic value of the numbe | COC(=O)[C@H](CCSC)NC(=O)C1=C(COC(C)=O)CSC2C(NC(=O)Cc3cccs3)C(=O)N12 (stereo partly drawn) [Example 2, N-(1-carbomethoxy-3-thiomethylpropyl)-7-(thienyl-2-acetamido)cephalosporanic acid amide] | - (0) | ± (0-1) |  |  |  |  |  |  |  | 
6.3 Logarithmic value of the numbe | 7.0 Logarithmic value of the numbe | < 3.3 Logarithmic value of the numbe | 8.6 Logarithmic value of the numbe | ≥ 100 | 8.5 Logarithmic value of the numbe | ≥ 12.5 | 9.0 Logarithmic value of the numbe | COC(=O)C[C@H](NC(=O)C1=C(COC(C)=O)CSC2C(NC(=O)Cc3cccs3)C(=O)N12)C(=O)OC (stereo partly drawn) [Example 1, N-[1,2-bis(carbomethoxy)ethyl]-7-(thienyl-2-acetamido)cephalosporanic acid amide] | - (0) | ± (0-1) |  |  |  |  |  |  |  | 

Source: patent US4446137A, “Cephalosporin derivative and pharmaceutical composition containing the derivative” (Kureha Kagaku Kogyo Kabushiki Kaisha, priority 1981, dated 1984)
